Here are results for 24 molecules from US9637496B2, “Substituted 7-azabicycles and their use as orexin receptor modulators” (priority 2013, dated 2017).

Where two headings read alike, the source gives them in different places.

One test addresses human orexin 2 receptor (Homo sapiens (Human), UniProt O43614). Description: Human orexin 2 receptor radioligand binding ([3H]-EMPA competition, HEK293 membranes).
Another test deals with human orexin 1 receptor (Homo sapiens (Human), UniProt O43613). The test can be described thus: Human orexin 1 receptor radioligand binding (competitive binding, CHO membranes).
Chain of human orexin 1 receptor (O43613 whole entry): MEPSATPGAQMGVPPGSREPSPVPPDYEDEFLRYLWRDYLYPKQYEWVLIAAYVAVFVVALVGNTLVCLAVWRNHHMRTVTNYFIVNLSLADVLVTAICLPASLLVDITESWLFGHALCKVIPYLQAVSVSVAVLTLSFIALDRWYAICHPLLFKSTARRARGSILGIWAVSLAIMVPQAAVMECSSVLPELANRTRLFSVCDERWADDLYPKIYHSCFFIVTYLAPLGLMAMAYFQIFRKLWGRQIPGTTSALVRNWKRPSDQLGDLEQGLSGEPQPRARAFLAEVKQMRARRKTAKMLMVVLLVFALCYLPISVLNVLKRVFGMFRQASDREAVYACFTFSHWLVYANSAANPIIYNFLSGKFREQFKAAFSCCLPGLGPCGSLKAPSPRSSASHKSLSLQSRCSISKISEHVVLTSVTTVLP
In another test the target is rat orexin 1 receptor (Rattus norvegicus (Rat), UniProt P56718). The test can be described thus: Rat orexin 1 receptor radioligand binding (competitive binding, HEK293 membranes).
Chain of rat orexin 1 receptor (P56718 whole entry): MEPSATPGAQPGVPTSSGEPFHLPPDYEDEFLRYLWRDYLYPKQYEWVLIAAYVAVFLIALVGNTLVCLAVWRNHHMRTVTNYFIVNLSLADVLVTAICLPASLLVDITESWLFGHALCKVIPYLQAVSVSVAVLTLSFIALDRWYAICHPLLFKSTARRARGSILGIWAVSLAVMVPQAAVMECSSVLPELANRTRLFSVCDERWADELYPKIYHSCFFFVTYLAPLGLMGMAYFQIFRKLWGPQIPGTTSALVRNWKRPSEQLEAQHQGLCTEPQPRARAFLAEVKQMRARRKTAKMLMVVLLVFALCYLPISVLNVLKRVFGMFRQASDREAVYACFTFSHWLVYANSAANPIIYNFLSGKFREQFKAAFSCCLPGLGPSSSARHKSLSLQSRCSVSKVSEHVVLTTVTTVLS
Setting [1] is: human orexin 2 receptor, Table 2, averages from between 2-20 runs, read-out: hOX2 Ki.
[2] abbreviates: human orexin 1 receptor, Table 2, averages from between 2-20 runs, read-out: hOX1 Ki.
Where [3] appears, read: rat orexin 1 receptor, Table 2, averages from between 2-20 runs, read-out: rOX1 Ki.
[4] abbreviates: Table 2, further testing, averages from 2-20 runs, read-out: hOX2 Ki.
Where [5] appears, read: Table 2, further testing, averages from 2-20 runs, read-out: hOX1 Ki.
Setting [6] is: Table 2, further testing, averages from 2-20 runs, read-out: rOX1 Ki.

Chain of human orexin 2 receptor (O43614 whole entry): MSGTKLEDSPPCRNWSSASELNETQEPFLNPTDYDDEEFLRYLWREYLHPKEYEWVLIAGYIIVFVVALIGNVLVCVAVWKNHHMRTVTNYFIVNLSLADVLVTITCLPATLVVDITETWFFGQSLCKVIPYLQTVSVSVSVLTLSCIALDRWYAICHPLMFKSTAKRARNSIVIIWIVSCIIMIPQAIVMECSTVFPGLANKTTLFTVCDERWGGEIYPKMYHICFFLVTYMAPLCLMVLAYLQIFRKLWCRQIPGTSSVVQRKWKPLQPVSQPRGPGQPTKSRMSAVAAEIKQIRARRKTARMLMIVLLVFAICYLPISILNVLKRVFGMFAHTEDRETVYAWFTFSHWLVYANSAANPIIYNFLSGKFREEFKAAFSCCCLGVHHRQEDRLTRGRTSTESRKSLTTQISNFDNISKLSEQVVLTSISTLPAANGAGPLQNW

In general, Ki refers to the equilibrium dissociation constant of an inhibitor or competing ligand from its target. Regarding `O=C(c1cccc(F)c1-c1ncccn1)N1[C@@H]2CC[C@H]1[C@H](Nc1ncc(C(F)(F)F)cc1Cl)C2` [Example 384, ((1S,2R,4R)-2-((3-chloro-5-(trifluoromethyl)pyridin-2-yl)amino)-7-azabicyclo[2.2.1]heptan-7-yl)(3-fluoro-2-(pyrimidin-2-yl)phenyl)methanone], the results for the Ki at human orexin 2 receptor (setting [1]), on human orexin 1 receptor (setting [2]) and at rat orexin 1 receptor (setting [3]) were 612 nM, 12 nM and 15 nM, respectively.
Turning to `O=C(c1ccccc1-c1ncccn1)N1[C@@H]2CC[C@H]1[C@H](Nc1ncc(C(F)(F)F)cc1Cl)C2` [Example 386, ((1S,2R,4R)-2-((3-chloro-5-(trifluoromethyl)pyridin-2-yl)amino)-7-azabicyclo[2.2.1]heptan-7-yl)(2-(pyrimidin-2-yl)phenyl)methanone], the Ki on human orexin 2 receptor (setting [1]) stood at 499 nM; at human orexin 1 receptor (setting [2]) it was 29 nM; on rat orexin 1 receptor (setting [3]), 20 nM.
On to `O=C(c1cccc(F)c1-n1nccn1)N1[C@@H]2CC[C@H]1[C@H](Nc1ncc(C(F)(F)F)cc1F)C2` [Example 449, (3-fluoro-2-(2H-1,2,3-triazol-2-yl)phenyl)((1S,2R,4R)-2-((3-fluoro-5-(trifluoromethyl)pyridin-2-yl)amino)-7-azabicyclo[2.2.1]heptan-7-yl)methanone], for which the values for the Ki on human orexin 2 receptor (setting [4]), at human orexin 1 receptor (setting [5]) and on rat orexin 1 receptor (setting [6]) were 873 nM, 41 nM and 34 nM, respectively.
As for `Cc1cccc(C(=O)N2[C@@H]3CC[C@H]2[C@H](Nc2cnc(Br)cn2)C3)c1-c1ncccn1` [Example 310, ((1S,2R,4R)-2-((5-bromopyrazin-2-yl)amino)-7-azabicyclo[2.2.1]heptan-7-yl)(3-methyl-2-(pyrimidin-2-yl)phenyl)methanone], the Ki on human orexin 2 receptor (setting [1]) is 381 nM; at human orexin 1 receptor (setting [2]) it was 7 nM; on rat orexin 1 receptor (setting [3]) it was 9 nM.
As for `O=C(c1c(F)cccc1-c1ncco1)N1[C@@H]2CC[C@H]1[C@H](Nc1cnc(C(F)(F)F)cn1)C2` [Example 411, (2-fluoro-6-(oxazol-2-yl)phenyl)((1S,2R,4R)-2-((5-(trifluoromethyl)pyrazin-2-yl)amino)-7-azabicyclo[2.2.1]heptan-7-yl)methanone], the results for the Ki at human orexin 2 receptor (setting [1]), at human orexin 1 receptor (read-out: hOX1 Ki) and at rat orexin 1 receptor (read-out: rOX1 Ki) were 622 nM, 31 nM and 53 nM, respectively.
`O=C(c1ccc(F)cc1-c1ncccn1)N1C2CCC1C(Oc1ccc(C(F)(F)F)cn1)C2` (racemic) [Example 430]: the Ki was over 10000 nM on human orexin 2 receptor (setting [1]), 300 nM on human orexin 1 receptor (setting [2]) and 245 nM at rat orexin 1 receptor (setting [3]).
Take `Cc1cccc(C(=O)N2[C@@H]3CC[C@H]2[C@H](Nc2ncc(Br)cn2)C3)c1-c1ncco1` [Example 314, ((1S,2R,4R)-2-((5-bromopyrimidin-2-yl)amino)-7-azabicyclo[2.2.1]heptan-7-yl)(3-methyl-2-(oxazol-2-yl)phenyl)methanone]: the values for the Ki on human orexin 2 receptor (setting [1]), at human orexin 1 receptor (read-out: hOX1 Ki) and on rat orexin 1 receptor (read-out: rOX1 Ki) were 349 nM, 14 nM and 6 nM, respectively.
Consider `Cc1noc(-c2cc(F)ccc2C(=O)N2[C@@H]3CC[C@H]2[C@H](Nc2cnc(C(F)(F)F)cn2)C3)n1` [Example 412, (4-fluoro-2-(3-methyl-1,2,4-oxadiazol-5-yl)phenyl)((1S,2R,4R)-2-((5-(trifluoromethyl)pyrazin-2-yl)amino)-7-azabicyclo[2.2.1]heptan-7-yl)methanone], for which the Ki was determined as 4800 nM at human orexin 2 receptor (setting [1]), 329 nM on human orexin 1 receptor (setting [2]) and 126 nM at rat orexin 1 receptor (setting [3]).
On to `O=C(c1c(F)cccc1-c1ncccn1)N1[C@@H]2CC[C@H]1[C@H](Nc1ncc(C(F)(F)F)cc1F)C2` [Example 459, ((1S,2R,4R)-2-((3-fluoro-5-(trifluoromethyl)pyridin-2-yl)amino)-7-azabicyclo[2.2.1]heptan-7-yl)(2-fluoro-6-(pyrimidin-2-yl)phenyl)methanone], for which the Ki on human orexin 2 receptor (setting [4]) came to 530 nM; on human orexin 1 receptor (setting [5]) it was 71 nM; on rat orexin 1 receptor (setting [6]), 26 nM.
Regarding `O=C(c1cccc(F)c1-c1ncc(F)cn1)N1C2CCC1C(Oc1ccc(C(F)(F)F)cn1)C2` (racemic) [Example 434], the inhibition constant Ki is over 10000 nM on human orexin 2 receptor, 172 nM at human orexin 1 receptor and 134 nM on rat orexin 1 receptor.
In the case of `O=C(c1ncccc1-c1ncccn1)N1[C@@H]2CC[C@H]1[C@H](Nc1ccc(C(F)(F)F)cn1)C2` [Example 381, (3-(pyrimidin-2-yl)pyridin-2-yl)((1S,2R,4R)-2-((5-(trifluoromethyl)pyridin-2-yl)amino)-7-azabicyclo[2.2.1]heptan-7-yl)methanone], the Ki amounted to 790 nM at human orexin 2 receptor (setting [1]), 25 nM at human orexin 1 receptor (read-out: hOX1 Ki) and 25 nM at rat orexin 1 receptor (read-out: rOX1 Ki).
On to `Cc1cccc(C(=O)N2[C@@H]3CC[C@H]2[C@H](Nc2ccc(Br)cn2)C3)c1-c1ncco1` [Example 302, ((1S,2R,4R)-2-((5-bromopyridin-2-yl)amino)-7-azabicyclo[2.2.1]heptan-7-yl)(3-methyl-2-(oxazol-2-yl)phenyl)methanone], for which the inhibition constant (Ki) on human orexin 2 receptor (setting [1]) stood at 188 nM; on human orexin 1 receptor (read-out: hOX1 Ki), 5 nM; at rat orexin 1 receptor (read-out: rOX1 Ki) it was 5 nM.
For `Cc1ccc(-c2ncccn2)c(C(=O)N2[C@@H]3CC[C@H]2[C@H](Nc2cnc(C(F)(F)F)cn2)C3)n1` [Example 403, (6-methyl-3-(pyrimidin-2-yl)pyridin-2-yl)((1S,2R,4R)-2-((5-(trifluoromethyl)pyrazin-2-yl)amino)-7-azabicyclo[2.2.1]heptan-7-yl)methanone], the Ki on human orexin 2 receptor (setting [1]) turned out to be 431 nM; at human orexin 1 receptor (read-out: hOX1 Ki), 67 nM; at rat orexin 1 receptor (read-out: rOX1 Ki), 88 nM.
For `Cc1cccc(C(=O)N2[C@@H]3CC[C@H]2[C@H](Nc2ccc(Br)cn2)C3)c1-n1nccn1` [Example 306, ((1S,2R,4R)-2-((5-bromopyridin-2-yl)amino)-7-azabicyclo[2.2.1]heptan-7-yl)(3-methyl-2-(2H-1,2,3-triazol-2-yl)phenyl)methanone] the same measures were 396 nM, 4 nM and 11 nM.
For `O=C(c1cccc(F)c1-n1nccn1)N1[C@@H]2CC[C@H]1[C@H](Nc1ncc(C(F)(F)F)cc1Cl)C2` [Example 383, ((1S,2R,4R)-2-((3-chloro-5-(trifluoromethyl)pyridin-2-yl)amino)-7-azabicyclo[2.2.1]heptan-7-yl)(3-fluoro-2-(2H-1,2,3-triazol-2-yl)phenyl)methanone], the Ki is 767 nM at human orexin 2 receptor (setting [1]), 16 nM on human orexin 1 receptor (setting [2]) and 33 nM at rat orexin 1 receptor (setting [3]).
As for `O=C(c1ccccc1-c1ncc(F)cn1)N1C2CCC1C(Oc1ccc(C(F)(F)F)cn1)C2` (racemic) [Example 433], the Ki came out at 2500 nM at human orexin 2 receptor (setting [1]), 73 nM on human orexin 1 receptor and 107 nM on rat orexin 1 receptor.
For `Cc1cnc(C(=O)N2[C@@H]3CC[C@H]2[C@H](Nc2cnc(C(F)(F)F)cn2)C3)c(-c2ncccn2)c1` [Example 405, (5-methyl-3-(pyrimidin-2-yl)pyridin-2-yl)((1S,2R,4R)-2-((5-(trifluoromethyl)pyrazin-2-yl)amino)-7-azabicyclo[2.2.1]heptan-7-yl)methanone], the values for the Ki on human orexin 2 receptor (read-out: hOX2 Ki), at human orexin 1 receptor (read-out: hOX1 Ki) and on rat orexin 1 receptor (read-out: rOX1 Ki) were over 10000 nM, 59 nM and 53 nM, respectively.
As to `O=C(c1cccc(F)c1-c1ncccn1)N1[C@@H]2CC[C@H]1[C@H](Nc1ncc(Br)cn1)C2` [Example 315, ((1S,2R,4R)-2-((5-bromopyrimidin-2-yl)amino)-7-azabicyclo[2.2.1]heptan-7-yl)(3-fluoro-2-(pyrimidin-2-yl)phenyl)methanone], the Ki amounted to 1850 nM at human orexin 2 receptor (setting [1]), 52 nM on human orexin 1 receptor (setting [2]) and 30 nM at rat orexin 1 receptor (setting [3]).
Regarding `Cc1cccc(C(=O)N2C3CCC2C(Nc2cnc(Br)cn2)C3)c1-c1ncco1` [Example 308, ((1S,2R,4R)-2-((5-bromopyrazin-2-yl)amino)-7-azabicyclo[2.2.]heptan-7-yl)(3-methyl-2-(oxazol-2-yl)phenyl)methanone], the Ki on human orexin 2 receptor (setting [1]) amounted to 173 nM; on human orexin 1 receptor (setting [2]), 4 nM; at rat orexin 1 receptor (setting [3]), 6 nM.
On to `Cc1cccc(C(=O)N2[C@@H]3CC[C@H]2[C@H](Nc2ncc(Br)cn2)C3)c1-n1nccn1` [Example 318, ((1S,2R,4R)-2-((5-bromopyrimidin-2-yl)amino)-7-azabicyclo[2.2.1]heptan-7-yl)(3-methyl-2-(2H-1,2,3-triazol-2-yl)phenyl)methanone], for which the Ki is 768 nM on human orexin 2 receptor (setting [1]), 13 nM on human orexin 1 receptor (read-out: hOX1 Ki) and 9 nM at rat orexin 1 receptor (read-out: rOX1 Ki).
`O=C(c1cccc(F)c1-c1ncccn1)N1[C@@H]2CC[C@H]1[C@H](Nc1cnc(Br)cn1)C2` [Example 309, ((1S,2R,4R)-2-((5-bromopyrazin-2-yl)amino)-7-azabicyclo[2.2.1]heptan-7-yl)(3-fluoro-2-(pyrimidin-2-yl)phenyl)methanone]: the results for the Ki on human orexin 2 receptor (setting [1]), at human orexin 1 receptor (read-out: hOX1 Ki) and at rat orexin 1 receptor (read-out: rOX1 Ki) were 1100 nM, 22 nM and 19 nM, respectively.
The matching figures for `Cc1cccc(C(=O)N2[C@@H]3CC[C@H]2[C@H](Nc2cnc(Br)cn2)C3)c1-n1nccn1` [Example 312, ((1S,2R,4R)-2-((5-bromopyrazin-2-yl)amino)-7-azabicyclo[2.2.1]heptan-7-yl)(3-methyl-2-(2H-1,2,3-triazol-2-yl)phenyl)methanone]: 360 nM, 9 nM and 6 nM.
With `Cc1cccc(C(=O)N2[C@@H]3CC[C@H]2[C@H](Nc2ccc(C#N)cn2)C3)c1-c1ncco1` [Example 394, 6-(((1S,2R,4R)-7-(3-methyl-2-(oxazol-2-yl)benzoyl)-7-azabicyclo[2.2.1]heptan-2-yl)amino)nicotinonitrile], the Ki amounted to 2100 nM on human orexin 2 receptor (setting [1]), 250 nM on human orexin 1 receptor (setting [2]) and 187 nM at rat orexin 1 receptor (setting [3]).
For the molecule `O=C(c1ccccc1-n1nccn1)N1[C@@H]2CC[C@H]1[C@H](Nc1ncc(C(F)(F)F)cc1F)C2` [Example 448, (2-(2H-1,2,3-triazol-2-yl)phenyl)((1S,2R,4R)-2-((3-fluoro-5-(trifluoromethyl)pyridin-2-yl)amino)-7-azabicyclo[2.2.1]heptan-7-yl)methanone], the results for the Ki on human orexin 2 receptor (setting [4]), at human orexin 1 receptor (setting [5]) and on rat orexin 1 receptor (setting [6]) were 666 nM, 33 nM and 41 nM, respectively.
